{
  "source": "patent US20070037887A1",
  "about": "“Blockade of mtor to prevent a hormonal adaptive response” (University of Virginia Patent Foundation, priority 2003, published 2007)",
  "key": {"[1]": {"test_system": "LTED cells", "assay": "Actin cytoskeleton (phalloidin staining) and ERα localization in LTED cells", "type": "cell-based, human", "details": "10^−9 M", "from_the_text": "It has been reported that cell mobility is controlled by a network of membrane initiated signals, such as activation of the Shc-Ras-MAPK pathway. Recently, it was reported that cell focal adhesions are highly dynamic structures. Cells can rapidly respond to the stimulation by growth factors and show reorganization of their cytoskeleton and cell shape. To examine E2 effects on reorganization of the actin cytoskeleton, the distribution of F-actin and also redistribution of the ERα localization in LTED and MCF-7 cells was determined by phalloidin staining. Untreated LTED cells expressed low actin polymerization and a few focal adhesion points. After E2 stimulation in contrast, the cytoskeleton underwent remodeling associated with formation of cellular ruffles, lamellipodias and leading edges, alterations of cell shape and loss of mature focal adhesion points. A subcellular redistribution of ERα to these dynamic membranes upon E2 stimulation represented another important feature of LTED cells. The ER antagonist ICI 182 780 at 10^−9 M blocked E2-induced ruffle formation as well as redistribution of ERα to the membrane with little effect by itself."}, "[2]": {"test_system": "Shc", "assay": "E2-induced Shc phosphorylation in MCF-7 cells", "type": "cell-based, human", "details": "10^−10 M E2 for 3 minutes", "protocol": "Because ERα, Shc and MAP kinase are all involved in E2 action in MCF-7 cells, upstream components responsible for Shc phosphorylation were determined by measuring the effects of PP2, ICI and PD98059 on E2-induced phosphorylation of Shc. In the presence of the inhibitors, MCF-7 cells were stimulated with vehicle or 10^−10 M E2 for 3 minutes and the status of Shc phosphorylation was examined. […] No effects of these inhibitors were apparent in the absence of E2 stimulation. […] Each of these inhibitors was capable of reducing the rate of cell proliferation in LTED cells."}, "[3]": {"test_system": "mTOR signaling", "details": "in cells; cited from earlier work"}, "[4]": {"test_system": "LTED cells", "assay": "[3H] thymidine incorporation into DNA, LTED cells", "type": "cell-based, human", "details": "inhibitors of the MAP kinase pathway", "protocol": "FIGS. 5A & 5B represent the effect of FTS on DNA synthesis in MCF-7 (FIG. 5A) and LTED (FIG. 5B) cells. One hundred thousand cells were plated into each well of 24-well plates. Two days later, the cells were re-fed with IMEM containing 5% DCC-FBS. After another two days, cells were treated in quadruplicate with the compounds indicated for 18 hours. [^3H] thymidine (1 μCi/well) was added during the last 2 h of incubation. [^3H] thymidine incorporated into DNA was normalized by protein content.\nThe inhibitory effect of FTS on cell growth may be the result of inhibition of cellular proliferation, induction of apoptosis, or both. To determine the mechanism by which FTS inhibits cell growth, FTS's effect on DNA synthesis and apoptosis was investigated. […] Estradiol (10^−10 M) increased [^3H] thymidine incorporation by 2.6 fold compared to the control level in MCF-7 cells."}, "[5]": {"test_system": "LTED cells", "assay": "Estradiol dose response of growth (hypersensitivity), LTED cells", "type": "cell-based, human", "details": "PD 98059 alone", "from_the_text": "During the phase when tamoxifen first begins to stimulate tumor growth, removal of tamoxifen and administration of very low doses of estradiol stimulates tumor growth. In marked contrast, wild type tumors not exposed to tamoxifen long term are not stimulated by such low doses of estradiol. Taken together, these experiments indicate that either estradiol deprivation or blockade of estrogen action with antiestrogens enhances the level of sensitivity to estrogens or to the estrogenic properties of tamoxifen. This phenomenon of adaptive hypersensitivity is believed to be responsible for the superiority of aromatase inhibitors over tamoxifen in a variety of clinical settings.\n(§1) As further evidence of the role of MAP kinase, PD 98059 was administered to LTED cells and its effect on level of sensitivity to estradiol was examined.\nTo investigate whether the MAP and P13 kinase pathways have a role in estradiol induced cell proliferation, the following experiments were conducted. […] Blockade of this effect was obtained with the MAPK inhibitor PD98059. Administration of TGF at a dose of 10 ng/ml caused a 2-log shift to the left in the ability of estradiol to stimulate the growth of wild-type MCF-7 cells. […] Dual inhibition of PI3K with LY40029 and MAPK with U0126 shifted the level of sensitivity to estradiol more dramatically, by more than 2 logs to the right. […]"}, "[6]": {"test_system": "MCF-7 cells", "assay": "Estradiol dose response of growth, wild type MCF-7 cells", "type": "cell-based, human", "details": "PD 98059 co-administered with TGF alpha", "protocol": "as §1\nTo investigate whether the MAP and P13 kinase pathways have a role in estradiol induced cell proliferation, the following experiments were conducted. […] Blockade of this effect was obtained with the MAPK inhibitor PD98059. Administration of TGF at a dose of 10 ng/ml caused a 2-log shift to the left in the ability of estradiol to stimulate the growth of wild-type MCF-7 cells. […] Dual inhibition of PI3K with LY40029 and MAPK with U0126 shifted the level of sensitivity to estradiol more dramatically, by more than 2 logs to the right. On the basis of these observations, it is believed that adaptive hypersensitivity involves the joint activation of the PI3K and MAPK pathways."}, "[7]": {"test_system": "hormone dependent breast cancer", "details": "women responding initially to tamoxifen then relapsing, crossed over; cited from earlier work"}, "[8]": {"test_system": "mTOR-raptor complex", "assay": "Coimmunoprecipitation of raptor with mTOR, compound added to cell extracts or immune complexes", "type": "binding", "details": "caffeine 1 mM, LY294002 10 μM, rapamycin 1 μM plus FKBP12 10 μM, wortmannin 1 μM", "protocol": "293T cells were transfected with pcDNA3 alone (Vec.) or with a combination of pcDNA3AU1-mTOR, pcDNA33HA-Raptor, and pcDNA33HA-mLST8. Extracts of the cells were incubated with increasing concentrations of FTS before AU1-mTOR was immunoprecipated. Samples of the immune complexes were incubated with [γ-^32P]ATP and recombinant [His^6]PHAS-I, then subjected to SDS-PAGE and transferred to an immobilon membrane. After obtaining a phosphorimage of the membrane to detect ^32P-PHAS-I, the membrane was immunoblotted with PThr^36/45 antibodies. Other samples of the immune complexes were subjected to SDS-PAGE and immunoblots were prepared with antibodies to the HA epitope or to mTOR (see FIG. 13A). Extracts of nontransfected 293T cells were incubated with increasing concentrations of FTS before mTOR was immunoprecipated with mTAb1. A control immunoprecipitation was conducted using nonimmune IgG (NI). Immune complexes were subjected to SDS-PAGE and immunoblots were prepared with antibodies to mLST8, mTOR, and raptor.\nSamples of extracts from 293T cells overexpressing AU1-mTOR, HA-raptor, and HA-mLST8 were incubated for 1 h with increasing concentrations of FTS (●, ▴, ▪) or GTS (∘, Δ, □) before immunoprecipitations were conducted with anti-AU1 antibodies. mTOR kinase activity (●, ∘) was determined by measuring ^32P incorporation into [His^6]PHAS-I in immune complex kinases assays performed with [γ-^32P]ATP (see FIG. 14A). The relative amounts of HA-raptor (▴, Δ) and HA-mLST8 (▪, □) that coimmunoprecipitated with AU1-mTOR were determined after immunoblotting with anti-HA antibodies (see FIG. 14B). The results (mean values+S.E. from 5 experiments) are expressed as percentages of the mTOR activity (FIG. 14A) or coimmunoprecipitating proteins (FIG. 14B) from samples incubated without FTS or GTS, and have been corrected for the amounts of AU1-mTOR immunoprecipitated.\n293T cells were transfected with pcDNA3 alone (Vec.) or with a combination of pcDNA3AU1-mTOR, pcDNA33HARaptor, and pcDNA33HA-mLST8. AU1-mTOR was immunoprecipitated and samples of the washed immune complexes were at incubated […] for 30 min with no inhibitors or with the following: caffeine (1 mM), FTS (50 μM), LY294002 (10 μM), rapamycin (1 μM) plus FKBP12 (10 μM), and 1 μM wortmannin. To prevent destruction of wortmannin, incubations were conducted in the absence of thiol reducing agents. Samples of the immune complexes were incubated for 10 min with 10 mM MnCl2, 1 mM [γ-^32P]ATP, and 50 μg/ml [His^6]PHAS-I to assess mTOR activity. Other samples were rinsed twice, subjected to SDS-PAGE, and immunoblotted with anti-HA and anti-AU1 antibodies to determine the amounts of HA-raptor and HA-mLST8 associated with AU1-mTOR. The relative amounts of ^32P incorporated into PHAS-I were determined by phosphorimaging (see FIG. 15B)."}, "[9]": {"test_system": "MAP kinase", "assay": "MAP kinase activation in LTED cells", "type": "cell-based, human", "protocol": "Upregulation of MAP kinase and PI-3-kinase could reflect either a constitutive activation of growth factor receptors, an increase in the endogenous secretion of growth factors, or other mechanisms. Inhibition of MAP kinase with a pure antiestrogen would rule out the possibility of constitutive activation of growth factor receptors or growth factor secretion. Accordingly, the pure anti-estrogen, faslodex (fulvestrant) was administered and the level of activation of MAP kinase in LTED cells was examined.\nEstrogen deprivation might trigger activation of a non-genomic, estrogen regulated, MAP kinase pathway which utilizes Shc. […] The addition of E2 stimulated MAP kinase phosphorylation in LTED cells within minutes. The increased MAP kinase phosphorylation by E2 was time and dose-dependent being greatly stimulated at 15 min and remaining elevated for at least 30 min. Maximal stimulation of MAP kinase phosphorylation was at 10^−10 M of E2."}, "[10]": {"test_system": "Shc", "assay": "Shc tyrosine phosphorylation in LTED cells", "type": "cell-based, human", "details": "at 3 min and 15 min respectively", "protocol": "Shc proteins are known to couple tyrosine kinase receptors to the MAPK pathway and activation of Shc involves the phosphorylation of SHC itself. To investigate if the Shc pathway was involved in the rapid action of estradiol in LTED cells, tyrosine phosphorylated proteins were immuno-precipitated and tested for the presence of Shc under E2 treatment. E2 rapidly stimulated Shc tyrosine phosphorylation in a dose and time dependent fashion with a peak at 3 minutes. The pure estrogen receptor antagonist, fulvestrant, blocked E2-induced Shc and MAPK phosphorylation at 3 min and 15 min respectively."}},
  "data": [
    {"compound": "C[C@]12CC[C@@H]3c4ccc(O)cc4C[C@@H](CCCCCCCCC[S+]([O-])CCCC(F)(F)C(F)(F)F)[C@H]3[C@@H]1CC[C@@H]2O", "note": "(stereo partly drawn) [ICI 182 780]", "values": [
      {"measurement": "E2-induced ruffle formation and redistribution of ERα to the membrane", "setting": "[1]", "value": "blocked"},
      {"measurement": "E2-induced Shc phosphorylation", "setting": "[2]", "value": "effectively inhibited"}
    ]},
    {"compound": "CC[C@H](C)[C@@H](CO[C@@H](Cc1ccccc1)C(=O)N[C@@H](CCS(C)(=O)=O)C(=O)OC(C)C)NC[C@@H](N)CS", "note": "[L-744,832]", "values": [
      {"measurement": "time in which inhibition of mTOR signaling occurs", "setting": "[3]", "value": "≤ 1.5", "unit": "h"}
    ]},
    {"compound": "COc1cccc(-c2cc(=O)c3ccccc3o2)c1N", "note": "[PD98059]", "values": [
      {"measurement": "incorporation of tritiated thymidine into DNA", "setting": "[4]", "value": "block the incorporation"},
      {"measurement": "shift to the right of estradiol dose response curves", "setting": "[5]", "value": "approximately one-half log"},
      {"measurement": "E2-induced Shc phosphorylation", "setting": "[2]", "value": "did not influence"},
      {"measurement": "TGF alpha induced left shift in estradiol dose response", "setting": "[6]", "value": "returned to baseline"},
      {"measurement": "TGF alpha induced left shift in estradiol dose response", "setting": "[6]; listed as PD 98059", "value": "returned back to baseline"}
    ]},
    {"compound": "CCC1(c2ccc(N)cc2)CCC(=O)NC1=O", "note": "(stereo not drawn) [aminoglutethimide]", "values": [
      {"measurement": "women with secondary clinical benefit", "setting": "[7]", "value": 50, "unit": "%"}
    ]},
    {"compound": "Cn1c(=O)c2c(ncn2C)n(C)c1=O", "note": "[caffeine, reference compound]", "values": [
      {"measurement": "decrease of the association of AU1-mTOR and HA-raptor", "setting": "[8]", "value": "little, if any, effect"}
    ]},
    {"compound": "C[C@]12CC[C@@H]3c4ccc(O)cc4C[C@@H](CCCCCCCCC[S+]([O-])CCCC(F)(F)C(F)(F)F)[C@H]3[C@@H]1CC[C@@H]2O", "note": "(stereo partly drawn) [fulvestrant]", "values": [
      {"measurement": "level of activated MAP kinase", "setting": "[9]", "value": "returned the level of activated MAP kinase back to the level seen in wild type MCF-7 cells"},
      {"measurement": "E2-induced Shc and MAPK phosphorylation", "setting": "[10]", "value": "blocked"}
    ]}
  ]
}
